In US12343319B2, “Compositions and methods for treatment of diseases and disorders” (Atai Therapeutics Inc., priority 2023, dated 2025):
Entries after “also recorded” stand apart in the source; their conditions may differ.

Assays:
[1] = system: Male WKY rats; assay: Low-dose sleep, locomotor, body temperature and qEEG study in WKY rats; assay type: in vivo, rat; details: 1, 3 and 10 mg/kg IP
Procedure: The aim of the current study was to identify a minimal effective dose of compound by testing a series of lower doses (1, 3 and 10 mg/kg). The study was carried out similarly to Examples 7 and 9 with differences noted below. Male WKY rats (n=8, 255-296 g at the start of dosing) were housed in groups of 2-3 animals per cage with standard housing conditions.

[2] = system: Male Sprague-Dawley rats; assay: 5-HT2A/2C/1A-mediated behaviors, locomotor activity and body temperature in rats; assay type: in vivo, rat
Procedure: Forty (40) male Sprague-Dawley rats were used as test subjects in this study. Animals were dosed with vehicle (IP), one of 3 doses of compound 2-2 (3 mg/kg, 10 mg/kg, 30 mg/kg IP) or psilocybin (1 mg/kg SC) and, following the appropriate pre-treatment time, were placed in locomotor activity boxes and continuously monitored for a 1 hr period with data collected into 10-minute time bins. Animals were visually assed for overt behavioral signs, including biomarkers for 5-HT2A receptor target engagement (i.e. wet dog shakes, back muscle contractions and stereotypic behaviors), 5-HT2C receptor activation (yawning, penile grooming), and 5-HT1A behaviors (forepaw treading, hindlimb abduction). Additional behavioral and somatic signs characteristic of 5-HT syndrome (i.e. tremor, salivation, flat body posture) also were measured. Core body temperature change was determined at 0 hr (pre-dose), 1 hr, and 2 hr. Simultaneously, the spontaneous locomotor activity of the rats was measured using automated Med Associates activity test chambers. Activity data collected included total distance travelled, rearing counts, and ambulatory episodes. LMA was measured for a total of 2 hours (i.e. the first hour to include visual assessments of behavioral signs, and the second hour the animals will not be assessed for behavioral signs) with data collected into 10 minute time bins. The tracking arena measured 17″ W×17″ L×12″ H, sensor bars were secured 1″ above the floor to track distance travelled, and a second set of sensor bars were placed ˜5″ above the floor to measure vertical movement and rearing activity. The parameters set on the tracking software were as follows: resolution −50 ms, box size −4 beams, resting delay −500 ms, and ambulatory trigger −3.
Table 14 outlines receptor activity and related behavioral and/or physiological measures.

[3] = system: male Sprague Dawley rats; assay: Psilocybin operant drug discrimination in rats; assay type: in vivo, rat
Procedure: Thirty-six (36) male Sprague Dawley rats served as subjects. Rats had been trained to lever press for food in standard operant conditioning chambers controlled by Med-PC software (Med. Associates Inc., St. Albans, VT) followed by training to associate the right lever to a psilocybin stimulus (0.5 mg/kg, SC), and the left lever to a neutral stimulus (saline, SC). The sequence of psilocybin and saline injections were administered under a randomized design where neither condition was administered for more than 3 consecutive days. […] The rats continued to receive a daily food ration (˜18 g at day end) with ad libitum access to water in their home cages.
Test sessions continued until 50 pellets had been obtained or 30 min had elapsed. During these sessions, response rate was also measured. Three types of tests were conducted: • 1. Dose-response profile for compound 2-2 to generalize to the psilocybin cue. On test days, rats received a single compound 2-2 dose (1, 3, or 10 mg/kg, IP) 10 min prior to test. The distribution of vehicle vs. drug-paired lever presses was recorded as well as the rate of lever response. • 2. Effect of the 5-HT subtype selective antagonists, M100907 (5-HT2A receptor selective; Kehne et al, 1996) and SB242084 (5-HT2C receptor selective, Kennett et al, 1997) against the generalization of compound 2-2. On test days, the rats received a single dose (0.5 mg/kg IP) of either antagonist 30 min before compound 2-2 (10 mg/kg, IP), which was administered 10 min prior to testing. The distribution of vehicle vs. drug-paired lever presses was recorded as well as the rate of lever response. • 3. Time-course profile for compound 2-2 (10 mg/kg IP) to generalize to the psilocybin cue. On test days, the rats received a single compound 2-2 dose (10 mg/kg, IP) at various pretreatment times (i.e., 10 min, 30 min, 1 h, 2 h, 4 h, 8 h) prior to test. The distribution of vehicle vs. drug-paired lever presses was recorded as well as the rate of lever response.
Drug testing was conducted on a Tuesday and Friday with the animals run on either vehicle or training drug (psilocybin 0.5 mg/kg, SC) on intervening weekdays. Group sizes varied among doses and pretreatment times and tended to be higher under situations where the choice response was more variable. This adjustment was made in an attempt to get as reliable a measure of drug vs. vehicle discrimination as possible at that specific dose or pretreatment time.

[4] = molecular target: 5-HT2A (Homo sapiens, UniProt P28223); assay: 5-HT2A receptor binding in human post-mortem frontal cortical tissue
[5] = 5-HT1A agonism, 3, 10, 30 mg/kg IP
[6] = 5-HT2C agonism, 3, 10, 30 mg/kg IP
[7] = excess 5-HT agonism (5-HT syndrome), 3, 10, 30 mg/kg IP

5-HT2A, sequence (P28223 whole entry): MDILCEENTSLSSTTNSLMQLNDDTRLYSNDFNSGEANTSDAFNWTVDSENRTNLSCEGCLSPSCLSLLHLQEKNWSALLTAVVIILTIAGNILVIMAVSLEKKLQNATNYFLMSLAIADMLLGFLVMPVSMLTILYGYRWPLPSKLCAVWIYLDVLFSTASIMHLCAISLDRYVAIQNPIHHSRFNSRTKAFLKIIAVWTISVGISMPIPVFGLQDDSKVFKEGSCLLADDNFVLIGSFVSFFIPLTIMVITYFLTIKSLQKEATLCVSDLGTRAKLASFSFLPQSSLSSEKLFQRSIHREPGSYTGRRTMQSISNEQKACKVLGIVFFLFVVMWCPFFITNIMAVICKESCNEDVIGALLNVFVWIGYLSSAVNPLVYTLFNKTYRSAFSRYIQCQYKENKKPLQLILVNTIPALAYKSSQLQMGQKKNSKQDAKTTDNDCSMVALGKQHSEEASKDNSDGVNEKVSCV

COc1ccc(OC)c(CCNCc2cc(C)cc(F)c2)c1 [Compound 2-2, 2-(2,5-dimethoxyphenyl)-N-(3-fluoro-5-methylbenzyl)ethan-1-amine]
body temperature [1]: did not affect
locomotion [1]: did not affect
distance travelled during the first 20 minutes of the 2 hour test ([2]; 30 mg/kg IP): decreased
total ambulatory episodes ([2]; 30 mg/kg IP): decreased
total rearing counts ([2]; 30 mg/kg IP): decreased
total distance travelled ([2]; 3, 10, 30 mg/kg IP, 2 hour test): did not affect
Flat body posture ([2]; 5-HT1A agonism / excess 5-HT agonism, 30 mg/kg IP (highest dose tested), 30 mg/kg): induced flat body posture; also recorded: Significant Increase
Forepaw treading (FPT) [2, 5]: No effect
Hindlimb abduction (HLA) [2, 5]: No effect
Penile grooming (PG) [2, 6]: No effect
Yawning [2, 6]: No effect
Salivation [2, 7]: No effect
Tremor [2, 7]: No effect
Locomotor activity ([2]; mixed/non-selective, 30 mg/kg IP): Significant decrease
generalization to the psilocybin cue ([3]; 10 mg/kg IP after M100907 0.5 mg/kg IP (30 min before)): 2+1%
generalization to the psilocybin cue ([3]; 10 mg/kg IP after SB242084 0.5 mg/kg IP (30 min before)): 71+14%
response rate ([3]; 10 mg/kg IP following antagonist pretreatment): no significant effect
generalization to the psilocybin cue ([3]; 10 mg/kg IP, 10 min prior to test (Veh pretreatment)): 91+8%
generalization to the psilocybin cue ([3]; 10 mg/kg IP, pretreatment time 4 h): ~35%
generalization to the psilocybin cue ([3]; 10 mg/kg IP, pretreatment times of 10 and 30 min): ~80%
response rate ([3]; 10 mg/kg IP, across pretreatment times 10 min-8 h): minor effect
rate of responding ([3]; 10 mg/kg IP, only at 10 min post dose): modestly suppressed
response rate ([3]; dose range 1-10 mg/kg IP): minor effects
IC50 [4]: 69 nM
Ki [4]: 30.8 nM
